The test system of test [1] is TNFalpha release in human whole blood stimulated with LPS. The test is described as follows: Inhibition of LPS induced TNFalpha release in human whole blood. In kind it is cell-based. Particulars: 1 microg/mL LPS, 4 hours, reported as range bins, read-out: Inhibition of LPS induced TNFalpha release in human whole blood pIC30 (-log IC30). As for the experimental part: Method for Measuring the Inhibition of TNFalpha Release in Human Whole Blood Stimulated with LPS:
Assay was performed with some modifications of the method described by Hatzelmann and Schudt (Hatzelmann and Schudt (2001) JPET 297: 267-279) and the protocol “drawing of venous blood from healthy volunteers for in vitro studies” was approved by the ethics committee of the Landesärztekammer Baden Württemberg in Stuttgart.
Heparinised venous blood was equilibrated to assay conditions for 1 hour at room temperature upon blood drawing. Immediately thereafter, 200 microL whole blood per sample were pre-incubated with 25 microL of a serial dilution of test compound or piclamilast as positive control for 30 min. at 37° C. After pre-incubation blood samples were stimulated by the addition of 25 microL lipopolysaccharide (LPS) (Sigma, Aldrich) per sample resulting in a final concentration of 1 microg/mL LPS and a final volume of 250 microL. Cells were incubated for 4 hours at 37° C. TNFalpha levels were determined from plasma that was obtained by a centrifugation step and transferring the supernatant to a new 96-well plate which was again centrifuged and clear plasma supernatant was used for the measurement of TNFalpha via alphaLISA Technology according to manufacture protocol (Perkin Elmer).
Whole blood samples that were not stimulated with LPS were used as control and set for 100% inhibition. Whole blood samples that were stimulated with LPS and solvent instead of test compound were set as 0% inhibition. Percent inhibition was calculated based on these controls for each sample and since most compounds achieved saturating maximal inhibition of 60% a pIC30 value was calculated with GraphPad Prism Software.
For the following compounds the inhibitory values of TNFalpha release [determined as −log IC30=pIC30] in the human whole blood assay between 4.5 and 4.9, between 5.0 and 5.9 and between 6.0 and 6.9 have been determined. The numbers of the compounds correspond to the examples numbers.
Inhibition of LPS Induced TNFalpha Release Assay in Human Whole Blood: pIC30

Test [2] concerns TNFalpha release in human peripheral blood mononuclear cells (PBMC) stimulated with LPS. The test is described as follows: Inhibition of LPS induced TNFalpha release in human PBMCs. In kind it is cell-based. Particulars: 1 ng/mL LPS, 24 hours, reported as range bins, read-out: Inhibition of LPS induced TNFalpha release in human PBMCs pIC30 (-log IC30). As for the experimental part:
Method for Measuring the Inhibition of TNFalpha Release in Human Peripheral Blood MononuClear Cells (PBMC) Stimulated with LPS:
Assay was performed with some modifications of the method described by Hatzelmann and Schudt (Hatzelmann and Schudt 2001, J. Pharmacol. Exp. Therapeutics 297: 267-279) and the protocol “drawing of venous blood from healthy volunteers for in vitro studies” was approved by the ethics committee of the Landesärztekammer Baden Württemberg in Stuttgart. Peripheral blood mononuclear cells (PBMCs) were isolated from venous blood with the anticoagulant citrate from healthy donors according to standard protocols using Ficoll. The cell layer of PBMCs were washed twice with phosphate buffer solution and equilibrated at room temperature for 60 minutes. 500,000 PBMCs in 180 microL RPMI1640 cell medium supplemented with 10% FCS, NEAA (Non-essential-amino-acids), L-Glutamine and Sodium Pyruvate per sample were pre-incubated with 10 microL of a serial dilution of test compound or piclamilast as positive control for 60 min. at 37° C. After pre-incubation blood samples were stimulated by the addition of 10 microL LPS (Sigma, Aldrich) per sample resulting in a final concentration of 1 ng/mL LPS and a final volume of 200 microL. Cells were incubated for 24 hours at 37° C. TNFalpha levels were determined from cell supernatant that was obtained by a centrifugation step and transferring the supernatant to a new 96-well plate. Content of TNFalpha was determined via alphaLISA Technology according to manufacture protocol (Perkin Elmer).
PBMC samples that were not stimulated with LPS were used as control and set for 100% inhibition. PBMC samples that were stimulated with LPS and solvent instead of test compound were set as 0% inhibition. Percent inhibition was calculated based on these controls for each sample and since most compounds achieved saturating maximal inhibition of 60% a pIC30 value was calculated with GraphPad Prism Software.
For the following compounds the inhibitory values of TNFalpha release [determined as −log IC30=pIC30] in human PBMCs between 5.0 and 5.9, between 6.0 and 6.9, between 7.0 and 7.9 and between 8.0 and 9.0 have been determined. The numbers of the compounds correspond to the examples numbers.
Inhibition of LPS Induced TNFalpha Release Assay in Human PBMCs: pIC30

In test [3] the target is T1, human EP2 receptor (Homo sapiens, UniProt P43116).
T1 construct: purchased Millipore
T1 sequence (P43116 whole entry): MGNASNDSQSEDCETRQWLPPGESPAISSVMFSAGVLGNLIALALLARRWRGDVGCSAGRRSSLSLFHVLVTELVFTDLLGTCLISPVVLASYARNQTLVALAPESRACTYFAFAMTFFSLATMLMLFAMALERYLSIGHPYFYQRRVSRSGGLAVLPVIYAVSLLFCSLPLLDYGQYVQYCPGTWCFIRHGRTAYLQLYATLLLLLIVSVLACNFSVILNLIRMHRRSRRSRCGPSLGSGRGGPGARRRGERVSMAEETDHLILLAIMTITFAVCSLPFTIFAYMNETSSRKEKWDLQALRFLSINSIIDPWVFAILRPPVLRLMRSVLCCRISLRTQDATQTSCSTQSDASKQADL
The test is described as follows: EP2 binding assay (PGE2 displacement). Particulars: recombinant human EP2 membranes, 1 nanoM [3H]-PGE2; reported as range bins; read-out: EP2 binding (PGE2 displacement) pIC50 (-log IC50) (converted). As for the experimental part:
Method for Measuring Inhibition of PGE2 Binding to the Human Prostanoid Receptor EP2:
Human EP2 receptor equilibrium competition binding assays were performed according to Abramovitz et al. (M. Abramovitz et al. 2000, Biochimica et Biophysica Acta 1483: 285-293) in a final incubation volume of 100 microL in 50 milliM Bis-Tris, pH6.0 in 96-well plates. Radiolabelled Prostaglandin E2 (PGE2) (1 nanoM [^3H]-PGE2 purchased from Perkin Elmer) was added to the assay as competitive ligand. Test compounds stored as Dimethylsulfoxide (DMSO) stock solutions were added to the assay in serial dilutions in assay buffer while keeping the final DMSO concentration equal in each sample. The reaction was initiated by addition of membrane proteins harbouring human EP2 receptor (ChemiSCREEN™ membrane preparation recombinant human EP2 prostanoid receptor that was purchased by Millipore). Total binding was determined in the absence of test compound or PGE2 and non-specific binding was determined in the presence of 1 microM PGE2. Incubations were conducted for 60 minutes at room temperature until equilibrium was reached and terminated by filtration through GF/B filter (Perkin Elmer) prewetted with 0.3% PEI solution. Unbound radiolabelled PGE2 was removed by 8 wash cycles with the same buffer under ice-cold conditions and the filters containing the residual radioactivity were dried for 60 minutes at 60° C. In order to measure the filter bound radioactivity, 40 microL microscint (scintillation liquid) was added to each filter and the chemiluminescence was determined by TopCount-NTX™. The specific binding was calculated by subtracting non-specific binding from each sample. Percent inhibition by test compounds was calculated based on specific binding without test compound. Each sample was measured in triplicates per experiment and for the calculation of the pIC50 at least 2 independent experiments were performed. Determination of half maximal inhibiting concentration (IC50) was performed with GraphPad Prism Software.
The numbers of the compounds correspond to the examples numbers.
EP2 Binding Assay (PGE2 Displacement): pIC50 Values

Test [4] deals with T2, human prostanoid receptor EP2 (Homo sapiens, UniProt P43116).
T2 construct: expressed in transfected cells; host or cells: CHO-K1 (CHOp6CreLuc-huEP2)
T2 sequence (P43116 whole entry): as above
Description: EP2 cAMP release assay in CHOp6CreLuc-huEP2 cells (CRE-luciferase readout). In kind it is cell-based. The note with it: CHOp6CreLuc-huEP2 cells, 4 hours at 37° C.; reported as range bins; read-out: EP2 cAMP release assay pEC50 (-log EC50) (converted). As for the experimental part:
Method for Measuring cAMP Release in Human EP2 Stably Transfectant Cells:
The potency and efficacy of EP2 agonists have been determined via measuring cAMP release in stably transfectant CHO-K1 cell expressing the human prostanoid receptor EP2 and luciferase enzyme regulated via a 6 times CRE (cAMP response element) containing transcriptional promoter. CHOp6CreLuc-huEP2 cells were seeded into 384-well plate (1000 cells per well) in DMEM/F12 (Dulbecco's Modified Eagle Medium/Nutrient Mixture F12) cell culture medium containing 2% FCS (Fetal Calf Serum) and 500 μg/ml G418 24 hours prior to the experiment. Test compound was added as serial dilutions while keeping the final DMSO concentration constant in each well. […] Cells were incubated together with test compound or butaprost for 4 hours at 37° C. The cAMP release was determined indirectly via luciferase activity that directly correlated to the amount of luciferase enzyme expressed in response to cAMP regulated promoter activity. The luciferase activity was determined by addition of luciferin containing buffer and subsequent quantification of resulting luminescence. Each sample was measured in quadruplicates per experiment and half-maximal effective concentration (EC50) and relative maximal effect compared to butaprost was determined from 3 independent experiments with GraphPad Prism Software. A compound that achieved over 80% of the maximal effect of butaprost was considered as full agonist.
For the following compounds the potency was determined in the cAMP release assay applying human EP2 transfectant CHOp6CreLuc-huEP2 cells. […] The numbers of the compounds correspond to the examples numbers.
EP2 cAMP Release Assay: pEC50

The structures appear in SMILES notation.

Broadly, the IC30 is the point of the concentration-response curve where the effect stands at 30%. Usually IC50 stands for the midpoint of a concentration-inhibition curve. Usually EC50 stands for the midpoint of the concentration-response curve. As to `O=C(O)/C=C/c1ccc(F)c(NC(=O)c2cc(-c3ccccc3CO)cc3ccccc23)c1` [Example 13, (2E)-3-{4-fluoro-3-[({3-[2-(hydroxymethyl)phenyl]naphthalen-1-yl}carbonyl)amino]phenyl}prop-2-enoic acid], the IC30 in test [1] and in test [2] was 126 to 1000 nM throughout. Also, in test [3], the half-inhibitory concentration (IC50) is 1.26 to 10 nM. Also, the half-maximal effective concentration (EC50) in test [4] was 0.126 to 1 nM.
Consider `O=C(O)/C=C/c1cccc(NC(=O)c2cc(-c3cccc(O)c3)cc3ccccc23)c1` [Example 19, (2E)-3-[3-({[3-(3-hydroxyphenyl)naphthalen-1-yl]carbonyl}amino)phenyl]prop-2-enoic acid], for which the IC30 in test [1] was 126 to 1000 nM; in test [2] it was 12.6 to 100 nM. In addition, the IC50 in test [3] was 1.26 to 10 nM. Further, the EC50 in test [4] is 0.00631 to 0.1 nM.
Take `O=C(O)/C=C/c1ccc(F)c(NC(=O)c2cc(-c3cc(O)cc(F)c3)cc3ccccc23)c1` [Example 15, (2E)-3-[4-fluoro-3-({[3-(3-fluoro-5-hydroxyphenyl)naphthalen-1yl]carbonyl}amino)phenyl]prop-2-enoic acid]: the 30% effect concentration (IC30) in test [1] lay within 1260 to 10000 nM; in test [2] it was 1 to 10 nM. Besides, the IC50 in test [3] was 1.26 to 10 nM. For the same molecule, in test [4], the concentration for a half-maximal effect (EC50) is 0.00631 to 0.1 nM.
Taken in the same sequence, the figures for `O=C(O)COc1cccc(NC(=O)c2cc(-c3ccccc3)cc3ccccc23)c1` [Example 4] were 12600 to 31600 nM, 126 to 1000 nM, 1.26 to 10 nM and 0.126 to 1 nM.

The values above are taken from patent US9309187B2, “EP2 receptor agonists” (TAKEDA GMBH, priority 2012, dated 2016).
